Values after ≈ are worked out from the molar mass of the structure shown. Like-named read-outs stand apart in the source and are kept apart here.
Experiments:
Test in all cases: Antimicrobial susceptibility testing (MIC), BD Phoenix Automated Microbiology System; for interpretation of the result: key: R, resistant; I, intermediate; S, susceptible; R*: *As a rule, when ESBL is detected, an interpretation of susceptible or intermediate for penicillins, cephalosporins and aztreonam is reported as resistant
Format in all cases: cell-based
Escherichia coli = details: for MIC: Escherichia coli
Text: (§1) The inventors performed antimicrobial susceptibility testing (AST) by determining the minimal inhibiting concentration (MIC) of a panel of antimicrobials on all twenty bacterial isolates using the BD Phoenix Automated Microbiology System (Table 3). Antimicrobial panels included several drugs from each of the four most commonly used classes of antimicrobials, aminoglycosides, β-lactams, carbapenems and fluoroquinolones. The panels also included antimicrobials from other classes, such as trimethoprim/sulfamethoxazole, but resistance to these was not considered in the classification of isolates as multidrug-resistant.

Klebsiella ssp. = details: for MIC: Klebsiella
Text: as §1

Pseudomonas aeruginosa = details: for MIC: Pseudomonas aeruginosa
Text: as §1

Acinetobacter baumannii = details: for MIC: Acinetobacter baumannii
Text: as §1

[1] = read-out: minimal inhibiting concentration, Escherichia coli isolate 1
[2] = read-out: minimal inhibiting concentration, Escherichia coli isolate 2
[3] = read-out: minimal inhibiting concentration, Escherichia coli isolate 3
[4] = read-out: minimal inhibiting concentration, Escherichia coli isolate 4
[5] = read-out: minimal inhibiting concentration, Escherichia coli isolate 5
[6] = read-out: minimal inhibiting concentration, Klebsiella ssp. isolate 1
[7] = read-out: minimal inhibiting concentration, Klebsiella ssp. isolate 2
[8] = read-out: minimal inhibiting concentration, Klebsiella ssp. isolate 3
[9] = read-out: minimal inhibiting concentration, Klebsiella ssp. isolate 4
[10] = read-out: minimal inhibiting concentration, Klebsiella ssp. isolate 5
[11] = Pseudomonas aeruginosa isolate 1
[12] = Pseudomonas aeruginosa isolate 2
[13] = Pseudomonas aeruginosa isolate 3
[14] = Pseudomonas aeruginosa isolate 4
[15] = Pseudomonas aeruginosa isolate 5
[16] = read-out: minimal inhibiting concentration, Pseudomonas aeruginosa isolate 1
[17] = read-out: minimal inhibiting concentration, Pseudomonas aeruginosa isolate 2
[18] = read-out: minimal inhibiting concentration, Pseudomonas aeruginosa isolate 3
[19] = read-out: minimal inhibiting concentration, Pseudomonas aeruginosa isolate 4
[20] = read-out: minimal inhibiting concentration, Pseudomonas aeruginosa isolate 5
[21] = Acinetobacter baumannii isolate 1
[22] = Acinetobacter baumannii isolate 2
[23] = Acinetobacter baumannii isolate 3
[24] = Acinetobacter baumannii isolate 4
[25] = Acinetobacter baumannii isolate 5
[26] = read-out: minimal inhibiting concentration, Acinetobacter baumannii isolate 1
[27] = read-out: minimal inhibiting concentration, Acinetobacter baumannii isolate 2
[28] = read-out: minimal inhibiting concentration, Acinetobacter baumannii isolate 3
[29] = read-out: minimal inhibiting concentration, Acinetobacter baumannii isolate 4
[30] = read-out: minimal inhibiting concentration, Acinetobacter baumannii isolate 5

C[C@@H](O)[C@H]1C(=O)N2C(C(=O)O)=C(S[C@@H]3CN[C@H](C(=O)N(C)C)C3)[C@H](C)[C@H]12 [Mero., Meropenem]
interpretation of the result (Escherichia coli; Escherichia coli isolate 1): S
interpretation of the result (Escherichia coli; Escherichia coli isolate 2): S
interpretation of the result (Escherichia coli; Escherichia coli isolate 3): S
interpretation of the result (Escherichia coli; Escherichia coli isolate 4): S
interpretation of the result (Escherichia coli; Escherichia coli isolate 5): S
MIC (Escherichia coli; [1]): ≤ 1 µg/mL
MIC (Escherichia coli; [2]): ≤ 1 µg/mL
MIC (Escherichia coli; [3]): ≤ 1 µg/mL
MIC (Escherichia coli; [4]): ≤ 1 µg/mL
MIC (Escherichia coli; [5]): ≤ 1 µg/mL
susceptibility of isolates (Escherichia coli; all E. coli isolates): susceptible
interpretation of the result (Klebsiella ssp.; Klebsiella ssp. isolate 1): S
interpretation of the result (Klebsiella ssp.; Klebsiella ssp. isolate 2): S
interpretation of the result (Klebsiella ssp.; Klebsiella ssp. isolate 3): S
interpretation of the result (Klebsiella ssp.; Klebsiella ssp. isolate 4): S
interpretation of the result (Klebsiella ssp.; Klebsiella ssp. isolate 5): S
MIC (Klebsiella ssp.; [6]): ≤ 1 µg/mL
MIC (Klebsiella ssp.; [7]): ≤ 1 µg/mL
MIC (Klebsiella ssp.; [8]): ≤ 1 µg/mL
MIC (Klebsiella ssp.; [9]): ≤ 1 µg/mL
MIC (Klebsiella ssp.; [10]): ≤ 1 µg/mL
susceptibility of isolates (Klebsiella ssp.; all Klebsiella ssp. isolates): susceptible
interpretation of the result (Pseudomonas aeruginosa; [11]): S
interpretation of the result (Pseudomonas aeruginosa; [12]): R
interpretation of the result (Pseudomonas aeruginosa; [13]): R
interpretation of the result (Pseudomonas aeruginosa; [14]): R
interpretation of the result (Pseudomonas aeruginosa; [15]): S
MIC (Pseudomonas aeruginosa; [16]): 4 µg/mL (≈ 10.4 µM)
MIC (Pseudomonas aeruginosa; [17]): > 8 µg/mL
MIC (Pseudomonas aeruginosa; [18]): > 8 µg/mL
MIC (Pseudomonas aeruginosa; [19]): > 8 µg/mL
MIC (Pseudomonas aeruginosa; [20]): 4 µg/mL (≈ 10.4 µM)
interpretation of the result (Acinetobacter baumannii; [21]): S
interpretation of the result (Acinetobacter baumannii; [22]): R
interpretation of the result (Acinetobacter baumannii; [23]): R
interpretation of the result (Acinetobacter baumannii; [24]): S
interpretation of the result (Acinetobacter baumannii; [25]): R
MIC (Acinetobacter baumannii; [26]): 2 µg/mL (≈ 5.22 µM)
MIC (Acinetobacter baumannii; [27]): > 8 µg/mL
MIC (Acinetobacter baumannii; [28]): > 8 µg/mL
MIC (Acinetobacter baumannii; [29]): ≤ 1 µg/mL
MIC (Acinetobacter baumannii; [30]): > 8 µg/mL

C[C@@H](O)[C@H]1C(=O)N2C(C(=O)O)=C(SCCN=CN)C[C@H]12 [Im., Imipenem]
interpretation of the result (Escherichia coli; Escherichia coli isolate 1): S
interpretation of the result (Escherichia coli; Escherichia coli isolate 2): S
interpretation of the result (Escherichia coli; Escherichia coli isolate 3): S
interpretation of the result (Escherichia coli; Escherichia coli isolate 4): S
interpretation of the result (Escherichia coli; Escherichia coli isolate 5): S
MIC (Escherichia coli; [1]): ≤ 1 µg/mL
MIC (Escherichia coli; [2]): ≤ 1 µg/mL
MIC (Escherichia coli; [3]): ≤ 1 µg/mL
MIC (Escherichia coli; [4]): ≤ 1 µg/mL
MIC (Escherichia coli; [5]): ≤ 1 µg/mL
interpretation of the result (Klebsiella ssp.; Klebsiella ssp. isolate 1): S
interpretation of the result (Klebsiella ssp.; Klebsiella ssp. isolate 2): S
interpretation of the result (Klebsiella ssp.; Klebsiella ssp. isolate 3): S
interpretation of the result (Klebsiella ssp.; Klebsiella ssp. isolate 4): S
interpretation of the result (Klebsiella ssp.; Klebsiella ssp. isolate 5): S
MIC (Klebsiella ssp.; [6]): ≤ 1 µg/mL
MIC (Klebsiella ssp.; [7]): ≤ 1 µg/mL
MIC (Klebsiella ssp.; [8]): ≤ 1 µg/mL
MIC (Klebsiella ssp.; [9]): ≤ 1 µg/mL
MIC (Klebsiella ssp.; [10]): ≤ 1 µg/mL
interpretation of the result (Pseudomonas aeruginosa; [11]): R
interpretation of the result (Pseudomonas aeruginosa; [12]): R
interpretation of the result (Pseudomonas aeruginosa; [13]): R
interpretation of the result (Pseudomonas aeruginosa; [14]): R
interpretation of the result (Pseudomonas aeruginosa; [15]): S
MIC (Pseudomonas aeruginosa; [16]): > 8 µg/mL
MIC (Pseudomonas aeruginosa; [17]): > 8 µg/mL
MIC (Pseudomonas aeruginosa; [18]): > 8 µg/mL
MIC (Pseudomonas aeruginosa; [19]): > 8 µg/mL
MIC (Pseudomonas aeruginosa; [20]): 2 µg/mL (≈ 6.68 µM)
interpretation of the result (Acinetobacter baumannii; [21]): S
interpretation of the result (Acinetobacter baumannii; [22]): R
interpretation of the result (Acinetobacter baumannii; [23]): R
interpretation of the result (Acinetobacter baumannii; [24]): S
interpretation of the result (Acinetobacter baumannii; [25]): R
MIC (Acinetobacter baumannii; [26]): 2 µg/mL (≈ 6.68 µM)
MIC (Acinetobacter baumannii; [27]): > 8 µg/mL
MIC (Acinetobacter baumannii; [28]): > 8 µg/mL
MIC (Acinetobacter baumannii; [29]): 2 µg/mL (≈ 6.68 µM)
MIC (Acinetobacter baumannii; [30]): > 8 µg/mL

CC(C)(O/N=C(\C(=O)N[C@@H]1C(=O)N2C(C(=O)[O-])=C(C[n+]3ccccc3)CS[C@H]12)c1csc(N)n1)C(=O)O [Ceft., Ceftazidime]
interpretation of the result (Escherichia coli; Escherichia coli isolate 1): R
interpretation of the result (Escherichia coli; Escherichia coli isolate 2): R
interpretation of the result (Escherichia coli; Escherichia coli isolate 3): R
interpretation of the result (Escherichia coli; Escherichia coli isolate 4): R
MIC (Escherichia coli; Escherichia coli isolate 1, read-out: minimal inhibiting concentration): > 16 µg/mL
MIC (Escherichia coli; Escherichia coli isolate 2, read-out: minimal inhibiting concentration): > 16 µg/mL
MIC (Escherichia coli; Escherichia coli isolate 3, read-out: minimal inhibiting concentration): > 16 µg/mL
MIC (Escherichia coli; Escherichia coli isolate 4, read-out: minimal inhibiting concentration): > 16 µg/mL
MIC (Escherichia coli; Escherichia coli isolate 5, read-out: minimal inhibiting concentration): 4 µg/mL (≈ 7.32 µM)
interpretation of the result (Klebsiella ssp.; Klebsiella ssp. isolate 1): R
interpretation of the result (Klebsiella ssp.; Klebsiella ssp. isolate 5): R
MIC (Klebsiella ssp.; Klebsiella ssp. isolate 1, read-out: minimal inhibiting concentration): > 16 µg/mL
MIC (Klebsiella ssp.; Klebsiella ssp. isolate 2, read-out: minimal inhibiting concentration): > 2 µg/mL
MIC (Klebsiella ssp.; Klebsiella ssp. isolate 3, read-out: minimal inhibiting concentration): > 2 µg/mL
MIC (Klebsiella ssp.; Klebsiella ssp. isolate 4, read-out: minimal inhibiting concentration): > 2 µg/mL
MIC (Klebsiella ssp.; Klebsiella ssp. isolate 5, read-out: minimal inhibiting concentration): > 16 µg/mL
interpretation of the result (Pseudomonas aeruginosa; [11]): R
interpretation of the result (Pseudomonas aeruginosa; [12]): S
interpretation of the result (Pseudomonas aeruginosa; [13]): R
interpretation of the result (Pseudomonas aeruginosa; [14]): R
interpretation of the result (Pseudomonas aeruginosa; [15]): R
MIC (Pseudomonas aeruginosa; Pseudomonas aeruginosa isolate 1, read-out: minimal inhibiting concentration): > 16 µg/mL
MIC (Pseudomonas aeruginosa; Pseudomonas aeruginosa isolate 2, read-out: minimal inhibiting concentration): 8 µg/mL (≈ 14.6 µM)
MIC (Pseudomonas aeruginosa; Pseudomonas aeruginosa isolate 3, read-out: minimal inhibiting concentration): > 16 µg/mL
MIC (Pseudomonas aeruginosa; Pseudomonas aeruginosa isolate 4, read-out: minimal inhibiting concentration): > 16 µg/mL
MIC (Pseudomonas aeruginosa; Pseudomonas aeruginosa isolate 5, read-out: minimal inhibiting concentration): > 16 µg/mL
interpretation of the result (Acinetobacter baumannii; [21]): R
interpretation of the result (Acinetobacter baumannii; [22]): R
interpretation of the result (Acinetobacter baumannii; [23]): S
interpretation of the result (Acinetobacter baumannii; [24]): R
interpretation of the result (Acinetobacter baumannii; [25]): R
MIC (Acinetobacter baumannii; Acinetobacter baumannii isolate 1, read-out: minimal inhibiting concentration): > 16 µg/mL
MIC (Acinetobacter baumannii; Acinetobacter baumannii isolate 2, read-out: minimal inhibiting concentration): > 16 µg/mL
MIC (Acinetobacter baumannii; Acinetobacter baumannii isolate 3, read-out: minimal inhibiting concentration): 8 µg/mL (≈ 14.6 µM)
MIC (Acinetobacter baumannii; Acinetobacter baumannii isolate 4, read-out: minimal inhibiting concentration): > 16 µg/mL
MIC (Acinetobacter baumannii; Acinetobacter baumannii isolate 5, read-out: minimal inhibiting concentration): > 16 µg/mL

Trimethoprim-Sulfamethoxazole [TmSm.]
interpretation of the result (Escherichia coli; Escherichia coli isolate 1): R
minimal inhibiting concentration (Escherichia coli; Escherichia coli isolate 1): 2/38
interpretation of the result (Escherichia coli; Escherichia coli isolate 2): R
minimal inhibiting concentration (Escherichia coli; Escherichia coli isolate 2): 2/38
interpretation of the result (Escherichia coli; Escherichia coli isolate 3): R
minimal inhibiting concentration (Escherichia coli; Escherichia coli isolate 3): 2/38
interpretation of the result (Escherichia coli; Escherichia coli isolate 4): R
minimal inhibiting concentration (Escherichia coli; Escherichia coli isolate 4): 2/38
interpretation of the result (Escherichia coli; Escherichia coli isolate 5): R
minimal inhibiting concentration (Escherichia coli; Escherichia coli isolate 5): 2/38
interpretation of the result (Klebsiella ssp.; Klebsiella ssp. isolate 1): R
minimal inhibiting concentration (Klebsiella ssp.; Klebsiella ssp. isolate 1): 2/38
interpretation of the result (Klebsiella ssp.; Klebsiella ssp. isolate 2): S
interpretation of the result (Klebsiella ssp.; Klebsiella ssp. isolate 3): S
interpretation of the result (Klebsiella ssp.; Klebsiella ssp. isolate 4): S
interpretation of the result (Klebsiella ssp.; Klebsiella ssp. isolate 5): R
minimal inhibiting concentration (Klebsiella ssp.; Klebsiella ssp. isolate 5): 2/38
interpretation of the result (Pseudomonas aeruginosa; [11]): R
minimal inhibiting concentration (Pseudomonas aeruginosa; [11]): 2/38
interpretation of the result (Pseudomonas aeruginosa; [12]): R
minimal inhibiting concentration (Pseudomonas aeruginosa; [12]): 2/38
interpretation of the result (Pseudomonas aeruginosa; [13]): R
minimal inhibiting concentration (Pseudomonas aeruginosa; [13]): 2/38
interpretation of the result (Pseudomonas aeruginosa; [14]): R
minimal inhibiting concentration (Pseudomonas aeruginosa; [14]): 2/38
interpretation of the result (Pseudomonas aeruginosa; [15]): R
minimal inhibiting concentration (Pseudomonas aeruginosa; [15]): 2/38
interpretation of the result (Acinetobacter baumannii; [21]): R
minimal inhibiting concentration (Acinetobacter baumannii; [21]): 2/38
interpretation of the result (Acinetobacter baumannii; [22]): R
minimal inhibiting concentration (Acinetobacter baumannii; [22]): 2/38
interpretation of the result (Acinetobacter baumannii; [23]): R
minimal inhibiting concentration (Acinetobacter baumannii; [23]): 2/38
interpretation of the result (Acinetobacter baumannii; [24]): R
minimal inhibiting concentration (Acinetobacter baumannii; [24]): 2/38
interpretation of the result (Acinetobacter baumannii; [25]): R
minimal inhibiting concentration (Acinetobacter baumannii; [25]): 2/38
